We go through twelve molecules from PubChem BioAssay (NCI).

Holding throughout (assay): NCI tumour cell line growth inhibition, 48 h
The test system of test [1] is 786-0 renal.
The subject of test [2] is EKVX NSCLC.
Test [3] deals with HCC-2998 colon.
In test [4] the test system is HCT-15 colon.
The test system of test [5] is HT29 colon.
In test [6] the test system is MCF7 breast.
The test system of test [7] is PC-3 prostate.
The test system of test [8] is SK-MEL-5 melanoma.
The subject of test [9] is U251 CNS.
Test [10] deals with UACC-62 melanoma.

Each structure is given as a SMILES string. “And” between values parts separate entries of the source, which are not always exact repeats. Equal values may be shown once.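 1) Cells in 96-well plates. 2) Compound, 48 h, 5 concentrations. 3) Linear interpolation between surrounding doses. 4) Unreached endpoint = highest concentration. The concentration for 50% growth inhibition is given as GI50. TGI is the concentration that stops growth completely.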

Take `C=C(C)[C@@H]1CC[C@]2(C(N)=O)CC[C@]3(C)[C@H](CC[C@@H]4[C@@]5(C)CC[C@H](O)C(C)(C)[C@@H]5CC[C@]43C)[C@@H]12`: the GI50 was 2030 nM in test [1]; 2960 nM in [2]; 3960 nM in test [3]; 3280 nM in test [4]; 2560 nM in test [5]; 2910 nM in test [6]. The GI50 is 2830 nM in test [7], 5220 nM in test [8], 2540 nM in test [9] and 4200 nM in test [10]. The TGI was determined as 4610 nM in [1]; 18200 nM in [2]; 12900 nM in test [3]; 12300 nM in test [4]; 7420 nM in test [5]; 11200 nM in test [6]. For the same molecule, the TGI was 14700 nM in test [7], 19200 nM in [8], 7160 nM in [9] and 23100 nM in [10].
As to `CC1=C(C(=O)Nc2ccccc2C)C(c2ccc(C3C(C(=O)Nc4ccccc4C)=C(C)NC(C)=C3C(=O)Nc3ccccc3C)cc2)C(C(=O)Nc2ccccc2C)=C(C)N1`, the TGI was 17300 nM in test [1]; 19200 nM in [2]; 9310 nM in test [3]; 23500 nM in test [4]; 4620 nM in test [5]; 19500 nM in [6]. Further, the TGI was determined as 16100 nM in test [7], 24600 nM in test [8], 7340 nM in test [9] and 4650 nM in test [10].
On to `COC(=O)[C@H]1C(=O)[C@@]2(C)[C@H]([C@H](OC(=O)c3ccccc3)[C@]3(O)C[C@H](OC(=O)[C@H](O)[C@@H](NC(=O)c4ccc(F)cc4)c4ccccc4)C(C)=C1C3(C)C)[C@]1(OC(C)=O)CO[C@@H]1C[C@@H]2O`, for which the GI50 in test [1] is 80.5 nM; in test [2], 18.1 nM; in test [3], 9.09 nM; in test [4] it was 553 nM; in test [5], 3.78 nM; in test [6], 3.54 nM. Further, the GI50 in [7] is 16.4 nM; in test [8] it was 10.4 nM; in [9], 10.3 nM; in [10] it was 12.2 nM. The TGI is greater than 25000 nM in test [2]; greater than 9550 nM in [3]; greater than 25000 nM in test [4]; greater than 25000 nM in [5]; greater than 25000 nM in test [6]; greater than 25000 nM in test [7]. For the same molecule, the TGI was greater than 9790 nM in test [8], greater than 25000 nM in test [9] and greater than 25000 nM in test [10].
Consider `CNC(=O)c1c(NC(=O)c2ccc(C(F)(F)F)cc2)sc2c1CCC(=O)C2`, for which the GI50 in [1] is 415 nM; in [2], 890 nM; in test [3], 1090 nM; in test [4] it was 239 nM; in [5] it was 555 nM; in test [6], 837 nM. Further, the GI50 in test [7] is 186 nM; in test [8] it was 1110 nM; in test [9], 314 nM; in test [10], 617 nM. Further, the TGI in test [1] worked out at 15100 nM; in test [2] it was 6050 nM; in [3] it was 4120 nM; in [4], 1760 nM; in test [5], 5270 nM; in [6] it was 4130 nM. The TGI turned out to be 1350 nM in test [7], 2580 nM in test [8], 2060 nM in test [9] and 2230 nM in test [10].
Consider `COc1ccccc1/C=C/C(=O)c1c(O)cc2occc2c1OC`, for which the GI50 was 35300 nM in [1]; 37100 nM in [2]; greater than 100000 nM in test [3]; greater than 100000 nM in test [4]; greater than 100000 nM in test [5]; 9560 nM in [6]. The GI50 was greater than 100000 nM in [7], greater than 100000 nM in test [8], 18900 nM in [9] and 23700 nM in [10]. Moreover, the TGI in test [1] is 98400 nM; in test [2], greater than 100000 nM; in test [3], greater than 100000 nM; in test [4], greater than 100000 nM; in test [5], greater than 100000 nM; in [6], greater than 100000 nM. Further, the TGI in [7], in [8], in test [9] and in test [10] was greater than 100000 nM in each case.
Regarding `COc1cc2c(F)nccc2cc1C(=O)N[C@@H](c1ccc(F)c(Cl)c1)[C@@H]1C[C@@H](O)CN1`, the GI50 in [1] was 76 nM; in [2] it was 2020 nM; in [3], 875 nM; in test [4] it was 838 nM; in test [5], 2350 nM; in [6], 575 nM. Further, the GI50 is 540 nM in test [7], 14700 nM in test [8], 1490 nM in test [9] and 514 nM in [10]. The TGI was 11500 nM in test [1]; 17800 nM in test [2]; 19500 nM in test [3]; 16400 nM in test [4]; 19600 nM in test [5]; 12100 nM in test [6]. For the same molecule, the TGI in test [7] was greater than 43300 nM; in test [8], 28100 nM; in test [9], 17800 nM; in test [10], 16900 nM.
Regarding `CCN1C(=O)N(CC)C2C1NN=c1s/c(=C\c3ccccc3F)c(=O)n12` (stereo not drawn), the GI50 in test [1] was 61 nM; in test [2], 48.1 nM; in [3], 33.4 nM; in test [4], 31.6 nM; in test [5], 31.9 nM; in [6], 32.5 nM. Further, the GI50 is 40 nM in [7], 28.9 nM in test [8], 35.4 nM in test [9] and 50.5 nM in [10]. The TGI is 52800 nM in test [1]; greater than 100000 nM in [2]; greater than 58800 nM in [3]; greater than 100000 nM in [4]; greater than 63600 nM in [6]; greater than 100000 nM in test [7]. For the same molecule, the figures for the TGI in test [8], in test [9] and in test [10] were 203 nM, greater than 100000 nM and greater than 80400 nM, respectively.
Consider `COc1cc2c3c(c4ccc(OC)c(OC)c4c2cc1OC)CN1CCC[C@@H]1C3`, for which the TGI in [1] was 1780 nM; in test [2] it was 378 nM; in test [3], 1780 nM; in [4], 11400 nM; in test [5] it was 593 nM; in test [6], greater than 20300 nM. Moreover, the TGI is 6580 nM in test [7], 324 nM in test [8], greater than 23300 nM in test [9] and 350 nM in test [10].
Turning to `Cc1ncc(C(=O)Nc2ccc(CN3CCN(C)CC3)c(C(F)(F)F)c2)cc1C#Cc1cnc(N)c2cnccc12`, the GI50 in test [1] was 225 nM; in test [2] it was 358 nM; in [3], 133 nM; in test [4], 389 nM; in [5], 21 nM; in test [6], 1180 nM. The GI50 was 225 nM in [7], 80.5 nM in test [8], 86.4 nM in test [9] and 19 nM in test [10]. The TGI came out at 11000 nM in test [1]; 12900 nM in [2]; 15200 nM in [3]; 4410 nM in test [4]; 1190 nM in test [5]; 3690 nM in [6]. Also, the TGI in [7] amounted to 16300 nM; in test [8], 604 nM; in test [9], 2350 nM; in test [10] it was 105 nM.
As for `C[C@H](N)C(=O)N[C@@H]1[C@H]2C(=C(O)C[C@@H](O)[C@@H]2O)C(=O)O[C@]1(C)C(Cl)Cl`, the GI50 was 246 nM in [1]; 472 nM in test [2]; 224 nM in test [3]; 894 nM in [4]; 282 nM in test [5]; 228 nM in [8]. In addition, the GI50 in test [9] was 171 nM; in test [10], 270 nM. Moreover, the TGI in test [1] is 10900 nM and 1800 nM; in test [2] it was 4660 nM and 2230 nM; in [3] it was 745 nM and 1160 nM; in test [4] it was 10100 nM and 5570 nM; in test [5], 1690 nM and 1300 nM; in test [6] it was 1520 nM. For the same molecule, the TGI is 3890 nM and 1370 nM in test [7]; 994 nM and 471 nM in test [8]; 3080 nM and 2290 nM in test [9]; 1660 nM and 1100 nM in [10].
With `CCC(=O)C1(c2ccccc2)CCN(C)CC1`, the TGI in test [1], in [2], in test [3], in test [4], in [5] and in test [6] was greater than 100000 nM throughout. Also, the TGI in [7], in test [8] and in test [9] was greater than 100000 nM in each case.
For `COc1ccc(-c2nsc3c2NC(=O)CC3c2ccc(F)cc2)cc1` (stereo not drawn), the GI50 in test [1] was 15200 nM; in test [3] it was greater than 21700 nM; in [4], 2160 nM; in test [5], 2840 nM; in test [6], 3290 nM; in test [7] it was 3330 nM. Besides, the figures for the GI50 in test [8], in [9] and in [10] were 3220 nM, 4000 nM and 4660 nM, respectively. Also, the TGI in [1] is greater than 100000 nM; in [3], greater than 100000 nM; in test [4], greater than 100000 nM; in test [5], 27600 nM; in [6], greater than 100000 nM; in test [7] it was greater than 100000 nM. Further, the TGI in [8], in [9] and in test [10] was greater than 100000 nM in each case.
